The text below walks through data of patent publication US20240384350A1, “METHODS OF TREATING CANCER WITH KINASE INHIBITORS” (BOARD OF REGENTS, THE UNIVERSITY OF TEXAS SYSTEM, priority 2021, published 2024).

Holding throughout (experiment): Ba/F3 drug screening, Cell Titer Glo, IC50 Mut/WT
Holding throughout (format): cell-based
For orientation: Cellular ATP, detected with luciferase, serves as a proxy for viable cell number.

For test [1], the target named is T1, EGFR E709_T710del insD (Homo sapiens, UniProt P00533, DEL709-709/T710D).
T1 construct: expressed in transfected cells; host or cells: Ba/F3
The conditions noted are these: PACC; E709_T710del insD; Ba/F3; 72 hours.

The target in test [2] is T2, EGFR G719A/R776C (Homo sapiens, UniProt P00533, G719A/R776C).
T2 construct: expressed in transfected cells; host or cells: Ba/F3
The conditions noted are these: PACC; G719A/R776C; Ba/F3; 72 hours.

Test [3] deals with T3, EGFR L858R/L792H (Homo sapiens, UniProt P00533, L792H/L858R).
T3 construct: expressed in transfected cells; host or cells: Ba/F3
The conditions noted are these: PACC; L858R/L792H; Ba/F3; 72 hours.

The target of test [4] is T4, EGFR L858R/V834L (Homo sapiens, UniProt P00533, L858R/V834L).
T4 construct: expressed in transfected cells; host or cells: Ba/F3 cells, retroviral pBabe-Puro vector
The conditions noted are these: Classical-Like, 72 hours.

For test [5], the target named is T5, EGFR G719A L861Q (Homo sapiens, UniProt P00533, G719A/L861Q).
T5 construct: expressed in transfected cells; host or cells: Ba/F3
Particulars: PACC; G719A L861Q; Ba/F3; 72 hours.

For test [6], the target named is T6, EGFR N771dupN G724S (Homo sapiens, UniProt P00533, DUP771-771/G724S).
T6 construct: expressed in transfected cells; host or cells: Ba/F3 cells, retroviral pBabe-Puro vector (vector made by GeneScript from EGFR G724S, c.2313_2314insAAC)
Particulars: Ex20, 72 hours.

Test [7] addresses T7, EGFR S768I/V769L (Homo sapiens, UniProt P00533, S768I/V769L).
T7 construct: host or cells: Ba/F3
Particulars: PACC; S768I/V769L; Ba/F3; 72 hours.

Test [8] addresses T8, EGFR L858R (Homo sapiens, UniProt P00533, L858R).
T8 construct: expressed in transfected cells; host or cells: Ba/F3 cells, retroviral pBabe-Puro vector
The conditions noted are these: Classical-Like, 72 hours.

Test [9] has as its target T9, EGFR L858R/T790M (Homo sapiens, UniProt P00533, L858R/T790M).
T9 construct: expressed in transfected cells; host or cells: Ba/F3
Particulars: T790M-like-3S, 72 hours.

Test [10] concerns the target T10, EGFR Ex19del (Homo sapiens, UniProt P00533, DEL746-750).
T10 construct: expressed in transfected cells; host or cells: Ba/F3 cells, retroviral pBabe-Puro vector
Particulars: Classical-Like, 72 hours.

Test [11] concerns the target T11, EGFR Ex19del G724S (Homo sapiens, UniProt P00533, DEL746-750/G724S).
T11 construct: expressed in transfected cells; host or cells: Ba/F3
The conditions noted are these: PACC; Ex19del G724S; Ba/F3; 72 hours.

The target in test [12] is T12, EGFR L747S (Homo sapiens, UniProt P00533, L747S).
T12 construct: expressed in transfected cells; host or cells: Ba/F3
The conditions noted are these: PACC; L747S; Ba/F3; 72 hours.

Test [13] deals with T13, EGFR K754E (Homo sapiens, UniProt P00533, K754E).
T13 construct: expressed in transfected cells; host or cells: Ba/F3 cells, retroviral pBabe-Puro vector
The conditions noted are these: Classical-Like, 72 hours.

Test [14] deals with T14, EGFR L858R/T790M/C797S (Homo sapiens, UniProt P00533, C797S/L858R/T790M).
T14 construct: expressed in transfected cells; host or cells: Ba/F3
The conditions noted are these: T790M-like-3R, 72 hours.

For test [15], the target named is T15, EGFR S768dupSVD V769M (Homo sapiens, UniProt P00533, INS768MDS/V769M).
T15 construct: expressed in transfected cells; host or cells: Ba/F3 cells, retroviral pBabe-Puro vector (vector made by GeneScript from EGFR S768dupSVD, c.2305G > A)
Particulars: Ex20, 72 hours.

The target in test [16] is T16, EGFR Ex19del L718Q (Homo sapiens, UniProt P00533, DEL746-750/L718Q).
T16 construct: expressed in transfected cells; host or cells: Ba/F3
The conditions noted are these: PACC; Ex19del L718Q; Ba/F3; 72 hours.

In test [17] the target is T17, EGFR S784F (Homo sapiens, UniProt P00533, S784F).
T17 construct: expressed in transfected cells; host or cells: Ba/F3 cells, retroviral pBabe-Puro vector (vector made by GeneScript from EGFR WT)
Particulars: Classical-Like, 72 hours.

Test [18] deals with T18, EGFR S768I V774M (Homo sapiens, UniProt P00533, S768I/V774M).
T18 construct: host or cells: Ba/F3
The conditions noted are these: PACC; S768I V774M; Ba/F3; 72 hours.

In test [19] the target is T19, EGFR G724S T790M (Homo sapiens, UniProt P00533, G724S/T790M).
T19 construct: expressed in transfected cells; host or cells: Ba/F3
The conditions noted are these: T790M-like-3R, 72 hours.

Test [20] has as its target T20, EGFR Ex19del T790M L718V (Homo sapiens, UniProt P00533, DEL746-750/L718V/T790M).
T20 construct: expressed in transfected cells; host or cells: Ba/F3
Particulars: T790M-like-3S, 72 hours.

For test [21], the target named is T21, EGFR T725M (Homo sapiens, UniProt P00533, T725M).
T21 construct: expressed in transfected cells; host or cells: Ba/F3 cells, retroviral pBabe-Puro vector (vector made by GeneScript from EGFR WT)
The conditions noted are these: Classical-Like, 72 hours.

Test [22] concerns the target T22, EGFR L861R (Homo sapiens, UniProt P00533, L861R).
T22 construct: expressed in transfected cells; host or cells: Ba/F3 cells, retroviral pBabe-Puro vector (vector made by GeneScript from EGFR WT)
Particulars: Classical-Like, 72 hours.

Test [23] concerns the target T23, EGFR L747P (Homo sapiens, UniProt P00533, L747P).
T23 construct: expressed in transfected cells; host or cells: Ba/F3
Particulars: PACC; L747P; Ba/F3; 72 hours.

Test [24] has as its system EGFR I740dupIPVAK. The conditions noted are these: PACC; I740dupIPVAK; Ba/F3; 72 hours.

The structures appear in SMILES notation.

In the case of `CN(C)C/C=C/C(=O)Nc1cc2c(Nc3ccc(Cl)c(Br)c3)ncnc2cn1` [Tarlox-TKI], the “ratio of IC50 for cells with mutant EGFR to IC50 for cells with wildtype EGFR (Mut/WT)” value (“ratio of IC50 for cells with mutant EGFR” for short) in test [1] was found to be 0.782; in test [2] it was 0.03266; in test [3], 0.346; in test [4], 0.002571; in test [5] it was 0.4976; in test [6], 0.8301. In addition, the “ratio of IC50 for cells with mutant EGFR” value in test [7] is 0.713; in test [8] it was 0.1181; in test [9], 11.95; in [10], 0.01427; in test [11], 2.658; in test [12], 0.1733. The “ratio of IC50 for cells with mutant EGFR” value in test [13] is given as 0.00723; in test [14], 20.7; in [15] it was 0.33; in test [16] it was 0.09651; in [17], 0.01816; in test [18], 0.2117. Moreover, the “ratio of IC50 for cells with mutant EGFR” value in test [19] is 1.041; in [20], 154.4; in test [21], 0.004861; in test [22] it was 0.01926; in [23], 2.085; in test [24] it was 0.5725.
